This note sets out measurements from ChEMBL document CHEMBL4340557, “Fasudil dichloroacetate (FDCA), an orally available agent with potent therapeutic efficiency on monocrotaline-induced pulmonary arterial hypertension rats” (Bioorg Med Chem Lett, 2019).

Data set [1] deals with Rattus norvegicus. Put plainly: Reversal of MCT-induced Sprague-Dawley rat model of elastic fiber hyperplasia at 43.3 mg/kg, po administered daily for 14 days starting from 14 days post-MCT challenge and measured post-last dose by elastic fibres staining-based microscopic analysis. It counts as functional, organism-based.
Data set [2] relates to Rattus norvegicus. The data set is described as follows: Anti-hypersensitive activity in MCT-induced pulmonary arterial hypertension Sprague-Dawley rat model assessed as mean pulmonary artery pressure at 37.5 mg/kg, po administered daily for 14 days starting from 14 days post-MCT challenge and measured post-last dose by pressure transducer-coupled polygraphy (reference value: 36 +/- 2.83 mmHg). It counts as functional.

For data set [3], the system named is Rattus norvegicus. The data set is described as follows: Anti-hypersensitive activity in MCT-induced pulmonary arterial hypertension Sprague-Dawley rat model assessed as right ventricular systolic pressure at 37.5 mg/kg, po administered daily for 14 days starting from 14 days post-MCT challenge and measured post-last dose by pressure transducer-coupled polygraphy (reference value: 59.06 +/- 3.26 mmHg). It counts as functional.

The subject of data set [4] is Rattus norvegicus. The data set is described as follows: Anti-hypersensitive activity in MCT-induced pulmonary arterial hypertension Sprague-Dawley rat model assessed as mean pulmonary artery pressure at 37.5 mg/kg, po administered daily for 14 days starting from 14 days post-MCT challenge and measured post-last dose in presence of DCA by pressure transducer-coupled polygraphy (reference value: 36 +/- 2.83 mmHg). The class given is functional.

In data set [5] the test system is Rattus norvegicus. The data set is described as follows: Anti-hypersensitive activity in MCT-induced pulmonary arterial hypertension Sprague-Dawley rat model assessed as right ventricular systolic pressure at 37.5 mg/kg, po administered daily for 14 days starting from 14 days post-MCT challenge and measured post-last dose in presence of DCA by pressure transducer-coupled polygraphy (reference value: 59.06 +/- 3.26 mmHg). It counts as functional.

The subject of data set [6] is Rattus norvegicus. Put plainly: Anti-hypersensitive activity in MCT-induced pulmonary arterial hypertension Sprague-Dawley rat model assessed as pulmonary artery medial thickness at 37.5 mg/kg, po administered daily for 14 days starting from 14 days post-MCT challenge and measured post-last dose by hematoxylin and eosin staining-based microscopic analysis (reference value: […] +/- […]). It counts as functional.

In data set [7] the test system is Rattus norvegicus. Put plainly: Anti-hypersensitive activity in MCT-induced pulmonary arterial hypertension Sprague-Dawley rat model assessed as lung fibrosis at 37.5 mg/kg, po administered daily for 14 days starting from 14 days post-MCT challenge and measured post-last dose by Masson's trichrome staining-based microscopic analysis (reference value: 6.12 +/- 1.66%). The class given is functional.

A short description of data set [8]: Plasma concentration in Sprague-Dawley rat at 12.48 mg/kg, po measured at 0.25 hrs by LC-MS/MS analysis. It counts as ADME, organism-based.
A short description of data set [9]: Plasma concentration in Sprague-Dawley rat at 12.48 mg/kg, po measured at 0.5 hrs by LC-MS/MS analysis. The class given is ADME, organism-based.
Data set [10] can be described thus: Plasma concentration in Sprague-Dawley rat at 12.48 mg/kg, po measured at 1 hr by LC-MS/MS analysis. The class given is ADME, organism-based.
A short description of data set [11]: Plasma concentration in Sprague-Dawley rat at 12.48 mg/kg, po measured at 2 hrs by LC-MS/MS analysis. It counts as ADME, organism-based.
Data set [12] is described as follows: Plasma concentration in Sprague-Dawley rat at 12.48 mg/kg, po measured at 4 hrs by LC-MS/MS analysis. It counts as ADME, organism-based.
A short description of data set [13]: Elimination rate constant in Sprague-Dawley rat at 12.48 mg/kg, po by LC-MS/MS analysis. It counts as ADME, organism-based. To be noted: in vivo.
Data set [14] is described as follows: Tmax in Sprague-Dawley rat at 12.48 mg/kg, po by LC-MS/MS analysis. The class given is ADME, organism-based. The settings on record: in vivo.
Data set [15] can be described thus: Cmax in Sprague-Dawley rat at 12.48 mg/kg, po by LC-MS/MS analysis. The settings on record: in vivo. The class given is ADME, organism-based. On the set-up: dose 12.48 mg/kg, route oral.
A short description of data set [16]: AUC (0 to t) in Sprague-Dawley rat at 12.48 mg/kg, po by LC-MS/MS analysis. It counts as ADME, organism-based. The settings on record: in vivo.
A short description of data set [17]: AUC (0 to infinity) in Sprague-Dawley rat at 12.48 mg/kg, po by LC-MS/MS analysis. The settings on record: in vivo. It counts as ADME, organism-based. On the set-up: dose 12.48 mg/kg, time infinity, route oral.
Data set [18] in a line: AUMC (0 to t) in Sprague-Dawley rat at 12.48 mg/kg, po by LC-MS/MS analysis. It counts as ADME, organism-based. To be noted: in vivo.
Data set [19] can be described thus: AUMC (0 to infinity) in Sprague-Dawley rat at 12.48 mg/kg, po by LC-MS/MS analysis. The class given is ADME, organism-based. The settings on record: in vivo.
Data set [20] in a line: MRT in Sprague-Dawley rat at 12.48 mg/kg, po by LC-MS/MS analysis. To be noted: in vivo. The class given is ADME, organism-based.
For data set [21], the system named is Rattus norvegicus. Put plainly: Hemodynamic activity in Sprague-Dawley rat assessed as effect on mean systemic arterial pressure at 37.5 mg/kg, po administered daily for 2 weeks by pressure transducer-coupled polygraphy. It counts as ADME, organism-based. The settings on record: in vivo, 336 h.
For data set [22], the system named is Rattus norvegicus. The data set is described as follows: Hemodynamic activity in Sprague-Dawley rat assessed as effect on mean systemic arterial pressure at 37.5 mg/kg, po administered daily for 2 weeks in presence of DCA by pressure transducer-coupled polygraphy. It counts as ADME, organism-based. The settings on record: in vivo, 336 h.
In data set [23] the test system is Rattus norvegicus. The data set is described as follows: Anti-hypersensitive activity in MCT-induced pulmonary arterial hypertension Sprague-Dawley rat model assessed as pulmonary artery medial thickness at 37.5 mg/kg, po administered daily for 14 days starting from 14 days post-MCT challenge and measured post-last dose in presence of DCA by hematoxylin and eosin staining-based microscopic analysis (reference value: […] +/- […]). The class given is functional.

For data set [24], the system named is Rattus norvegicus. The data set is described as follows: Anti-hypersensitive activity in MCT-induced pulmonary arterial hypertension Sprague-Dawley rat model assessed as lung fibrosis at 37.5 mg/kg, po administered daily for 14 days starting from 14 days post-MCT challenge and measured post-last dose in presence of DCA by Masson's trichrome staining-based microscopic analysis (reference value: 6.12 +/- 1.66%). The class given is functional.

The subject of data set [25] is Rattus norvegicus. Put plainly: Anti-hypersensitive activity in MCT-induced pulmonary arterial hypertension Sprague-Dawley rat model assessed as reduction in cardiomyocyte hypertrophy by measuring cross-sectional area of cardiomyocyte at 37.5 mg/kg, po administered daily for 14 days starting from 14 days post-MCT challenge and measured post-last dose by hematoxylin and eosin staining-based microscopic analysis (reference value: 418 +/- 50.88 micrometer2). It counts as functional.

For data set [26], the system named is Rattus norvegicus. The data set is described as follows: Anti-hypersensitive activity in MCT-induced pulmonary arterial hypertension Sprague-Dawley rat model assessed as reduction in cardiomyocyte hypertrophy by measuring cardiac fibrosis at 37.5 mg/kg, po administered daily for 14 days starting from 14 days post-MCT challenge and measured post-last dose by Masson's trichrome staining-based microscopic analysis (reference value: 11.74 +/- 3.24 %). It counts as functional. On the set-up: scale not given: the % may be the effect or the level left.

The test system of data set [27] is Rattus norvegicus. Put plainly: Anti-hypersensitive activity in MCT-induced pulmonary arterial hypertension Sprague-Dawley rat model assessed as reduction in cardiomyocyte hypertrophy by measuring cross-sectional area of cardiomyocyte at 37.5 mg/kg, po administered daily for 14 days starting from 14 days post-MCT challenge and measured post-last dose in presence of DCA by hematoxylin and eosin staining-based microscopic analysis (reference value: 418 +/- 50.88 micrometer2). It counts as functional.

The subject of data set [28] is Rattus norvegicus. The data set is described as follows: Anti-hypersensitive activity in MCT-induced pulmonary arterial hypertension Sprague-Dawley rat model assessed as reduction in cardiomyocyte hypertrophy by measuring cardiac fibrosis at 37.5 mg/kg, po administered daily for 14 days starting from 14 days post-MCT challenge and measured post-last dose in presence of DCA by Masson's trichrome staining-based microscopic analysis (reference value: 11.74 +/- 3.24 %). It counts as functional. Also noted: scale not given: the % may be the effect or the level left.

In data set [29] the test system is Rattus norvegicus. Put plainly: Anti-hypersensitive activity in MCT-induced pulmonary arterial hypertension Sprague-Dawley rat model assessed as mean pulmonary artery pressure at 15.5 mg/kg, po administered daily for 14 days starting from 14 days post-MCT challenge and measured post-last dose by pressure transducer-coupled polygraphy (reference value: 36 +/- 2.83 mmHg). It counts as functional.

The subject of data set [30] is Rattus norvegicus. The data set is described as follows: Anti-hypersensitive activity in MCT-induced pulmonary arterial hypertension Sprague-Dawley rat model assessed as right ventricular systolic pressure at 15.5 mg/kg, po administered daily for 14 days starting from 14 days post-MCT challenge and measured post-last dose by pressure transducer-coupled polygraphy (reference value: 59.06 +/- 3.26 mmHg). The class given is functional.

The subject of data set [31] is Rattus norvegicus. Put plainly: Anti-hypersensitive activity in MCT-induced pulmonary arterial hypertension Sprague-Dawley rat model assessed as right ventricular hypertrophy index at 15.5 mg/kg, po administered daily for 14 days starting from 14 days post-MCT challenge and measured post-last dose by pressure transducer-coupled polygraphy (reference value: […]). The class given is functional.

Data set [32] deals with Rattus norvegicus. Put plainly: Anti-hypersensitive activity in MCT-induced pulmonary arterial hypertension Sprague-Dawley rat model assessed as pulmonary artery medial thickness at 15.5 mg/kg, po administered daily for 14 days starting from 14 days post-MCT challenge and measured post-last dose by hematoxylin and eosin staining-based microscopic analysis (reference value: […] +/- […]). The class given is functional.

Data set [33] concerns Rattus norvegicus. The data set is described as follows: Anti-hypersensitive activity in MCT-induced pulmonary arterial hypertension Sprague-Dawley rat model assessed as lung fibrosis at 15.5 mg/kg, po administered daily for 14 days starting from 14 days post-MCT challenge and measured post-last dose by Masson's trichrome staining-based microscopic analysis (reference value: 6.12 +/- 1.66%). The class given is functional.

Data set [34] concerns Rattus norvegicus. The data set is described as follows: Hemodynamic activity in Sprague-Dawley rat assessed as effect on mean systemic arterial pressure at 15.5 mg/kg, po administered daily for 2 weeks by pressure transducer-coupled polygraphy. The settings on record: in vivo, 336 h. The class given is ADME, organism-based.
The test system of data set [35] is Rattus norvegicus. The data set is described as follows: Anti-hypersensitive activity in MCT-induced pulmonary arterial hypertension Sprague-Dawley rat model assessed as reduction in cardiomyocyte hypertrophy by measuring cross-sectional area of cardiomyocyte at 15.5 mg/kg, po administered daily for 14 days starting from 14 days post-MCT challenge and measured post-last dose by hematoxylin and eosin staining-based microscopic analysis (reference value: 418 +/- 50.88 micrometer2). The class given is functional.

Data set [36] relates to Rattus norvegicus. Put plainly: Anti-hypersensitive activity in MCT-induced pulmonary arterial hypertension Sprague-Dawley rat model assessed as reduction in cardiomyocyte hypertrophy by measuring cardiac fibrosis at 15.5 mg/kg, po administered daily for 14 days starting from 14 days post-MCT challenge and measured post-last dose by Masson's trichrome staining-based microscopic analysis (reference value: 11.74 +/- 3.24 %). The class given is functional. Also noted: scale not given: the % may be the effect or the level left.

The structures appear in SMILES notation. Calls of active or inactive are those of the source. The rule behind the calls is not given here.

Take `O=S(=O)(c1cccc2cnccc12)N1CCCNCC1`: in [1], the result was Active.

As for `Cl.O=S(=O)(c1cccc2cnccc12)N1CCCNCC1` [FASUDIL HYDROCHLORIDE], the Activity in data set [2] is 32.83 mmHg; in [3] it was 59.9 mmHg; in data set [4] it was 29.83 mmHg; in data set [5] it was 51.13 mmHg; in data set [6], 0.21; in data set [7] it was 6.41%. Further, the Activity entry in data set [21] is recorded as “Non-Toxic”; in [22], “Non-Toxic”; in data set [23], 0.2; in [24], 6.71%; in data set [25] it was 354.35 um2; in [26], 3.97%. For the same compound, the values for the Activity in data set [27] and in data set [28] were 341.12 um2 and 3.84%, respectively. This compound registered a concentration at 0.25 h in data set [8] of 84.2 ng/mL. This compound returned a concentration at 0.5 h in [9] of 23.2 ng/mL. Moreover, the concentration at 1 h in data set [10] was found to be 17.8 ng/mL. In data set [11], this compound yielded a concentration at 2 h of 7.01 ng/mL. Moreover, the concentration at 4 h in [12] is 3.85 ng/mL. Further, the k el in [13] was 0.000253 s⁻¹. Besides, in data set [14], the Tmax stood at 15 min. This compound showed a Cmax in data set [15] of 84.2 ng/mL. The compound also showed an AUC(0-t) in [16] of 55.4 ng·h/mL. Besides, the AUC(0-inf) in data set [17] amounted to 59.8 ng·h/mL. The AUMCt in data set [18] was determined as 52.8 hr.hr.ng/ml. In [19], this compound showed an AUMC of 75.7 hr.hr.ng/ml. The compound further registered an MRT in data set [20] of 72 min.

Take `O=C([O-])C(Cl)Cl.[Na+]` [SODIUM DICHLOROACETATE]: the Activity in data set [29] is recorded as 34 mmHg; in [30] it was 57.4 mmHg; in data set [32], 0.3; in [33], 12.45%; in [34] it was “Non-Toxic”; in [35], 387.53 um2. Besides, the Activity in [36] stood at 8.47%. The Activity_index in data set [31] is reported as 0.564.
